Measured values as given in patent US20260092061A1, “COMPOUNDS FOR TARGETED PROTEIN DEGRADATION” (Amphista Therapeutics Limited, priority 2022, published 2026).
Where two headings read alike, the source gives them in different places.

Biological target: T1, BRD9 (Homo sapiens, UniProt Q9H8M2)
T1 sequence (Q9H8M2 1-597): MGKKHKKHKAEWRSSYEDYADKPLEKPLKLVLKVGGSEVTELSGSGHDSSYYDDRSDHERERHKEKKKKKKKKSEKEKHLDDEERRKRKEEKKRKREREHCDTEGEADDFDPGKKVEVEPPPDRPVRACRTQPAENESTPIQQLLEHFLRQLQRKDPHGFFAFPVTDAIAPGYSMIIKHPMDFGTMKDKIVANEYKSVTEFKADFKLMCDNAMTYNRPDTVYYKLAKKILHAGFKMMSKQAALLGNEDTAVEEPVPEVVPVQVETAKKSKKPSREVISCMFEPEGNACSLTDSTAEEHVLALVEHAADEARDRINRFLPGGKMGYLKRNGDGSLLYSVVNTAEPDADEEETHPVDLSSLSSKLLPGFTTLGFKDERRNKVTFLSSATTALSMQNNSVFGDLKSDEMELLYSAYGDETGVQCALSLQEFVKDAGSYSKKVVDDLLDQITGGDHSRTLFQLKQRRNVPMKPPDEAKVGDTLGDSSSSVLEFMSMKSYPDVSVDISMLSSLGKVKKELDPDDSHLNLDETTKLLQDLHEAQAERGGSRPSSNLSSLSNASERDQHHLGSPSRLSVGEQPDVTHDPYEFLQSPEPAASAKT
Assay: Degradation of BRD9 (IF), immunofluorescence in MV4-11 cells, 24 hours (Assay Protocol 2)
Assay type: cell-based
Parameters: A suspension of MV4-11 cells (ATCC CRL-9591) was prepared; host or cells: MV4-11
Settings: BRD9 degradation; for DC50: read-out: DC50
Summary of the method: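 MV4-11 cells treated with compound 24 h at 37° C., then fixed, permeabilised and immunostained for BRD9 (anti-BRD9 E4Q3F, Alexa 647 secondary, Hoechst counterstain). High-content imaging quantified nuclear BRD9 signal; % BRD9 remaining normalised to DMSO and 100 nM CFT-8634 controls.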

[1] = MV4-11, Assay protocol 2, read-out: Dmax

SMILES	Dmax (Assay protocol 2)	DC50 (Assay protocol 2) [nM]	Dmax [1] [%]
COc1cc(-c2cn(C)c(=O)c(C)c2C)ccc1OC1CCC(Cc2cccc3c2CCN(C(=O)C(C#N)=CC(C)(C)N2CCN(C4COC4)CC2)C3C(C)C)CC1 (single isomer, unassigned) [Compound C86]		25 to 1000	> 75
COc1cc(-c2cn(C)c(=O)c(C)c2C)cc(OC)c1CN1CCN(Cc2ccc3c(c2)[C@H](C(C)C)N(C(=O)/C(C#N)=C/C(C)(C)C)CC3)C2(CC2)C1 (single isomer, unassigned) [Compound C87, (E/Z)-2-(7-((7-(2,6-dimethoxy-4-(1,4,5-trimethyl-6-oxo-1,6-dihydropyridin-3-yl)benzyl)-4,7-diazaspiro[2.5]octan-4-yl)methyl)-1-isopropyl-1,2,3,4-tetrahydroisoquinoline-2-carbonyl)-4,4-dimethylpent-2-enenitrile]		10 to 25	70 to 75
COc1cc(-c2cn(C)c(=O)c(C)c2C)cc(OC)c1CN1CCN(Cc2ccc3c(c2)[C@@H](C(C)C)N(C(=O)/C(C#N)=C/C(C)(C)C)CC3)C2(CC2)C1 (single isomer, unassigned) [Compound C88, (E/Z)-2-(7-((7-(2,6-dimethoxy-4-(1,4,5-trimethyl-6-oxo-1,6-dihydropyridin-3-yl)benzyl)-4,7-diazaspiro[2.5]octan-4-yl)methyl)-1-isopropyl-1,2,3,4-tetrahydroisoquinoline-2-carbonyl)-4,4-dimethylpent-2-enenitrile]		25 to 1000	40 to 70
COc1cc(-c2cn(C)c(=O)c(C)c2C)cc(OC)c1CN(C)Cc1ccc2c(c1)[C@@H](C(C)C)N(C(=O)/C(C#N)=C/C(C)(C)C)CC2 (single isomer, unassigned) [Compound C89]		10 to 25	40 to 70
CC[C@H]1c2cccc(CN3CCN(Cc4c(OC)cc(-c5cn(C)c(=O)c(C)c5C)cc4OC)C4(CC4)C3)c2CCN1C(=O)/C(C#N)=C/C(C)(C)C (single isomer, unassigned) [Compound C90, (E/Z)-2-(5-((4-(2,6-dimethoxy-4-(1,4,5-trimethyl-6-oxo-1,6-dihydropyridin-3-yl)benzyl)-4,7-diazaspiro[2.5]octan-7-yl)methyl)-1-ethyl-1,2,3,4-tetrahydroisoquinoline-2-carbonyl)-4,4-dimethylpent-2-enenitrile]		> 1000	40 to 70
CC[C@@H]1c2cccc(CN3CCN(Cc4c(OC)cc(-c5cn(C)c(=O)c(C)c5C)cc4OC)C4(CC4)C3)c2CCN1C(=O)/C(C#N)=C/C(C)(C)C (single isomer, unassigned) [Compound C91, (E/Z)-2-(5-((4-(2,6-dimethoxy-4-(1,4,5-trimethyl-6-oxo-1,6-dihydropyridin-3-yl)benzyl)-4,7-diazaspiro[2.5]octan-7-yl)methyl)-1-ethyl-1,2,3,4-tetrahydroisoquinoline-2-carbonyl)-4,4-dimethylpent-2-enenitrile]		< 1.25	> 75
CC[C@H]1c2cccc(CN3CCN(Cc4c(OC)cc(-c5cn(C)c(=O)c(C)c5C)cc4OC)CC34CC4)c2CCN1C(=O)/C(C#N)=C/C(C)(C)CF (single isomer, unassigned) [Compound C92, (E/Z)-2-(5-((7-(2,6-dimethoxy-4-(1,4,5-trimethyl-6-oxo-1,6-dihydropyridin-3-yl)benzyl)-4,7-diazaspiro[2.5]octan-4-yl)methyl)-1-ethyl-1,2,3,4-tetrahydroisoquinoline-2-carbonyl)-5-fluoro-4,4-dimethylpent-2-enenitrile]			40 to 70
CC[C@@H]1c2cccc(CN3CCN(Cc4c(OC)cc(-c5cn(C)c(=O)c(C)c5C)cc4OC)CC34CC4)c2CCN1C(=O)/C(C#N)=C/C(C)(C)CF (single isomer, unassigned) [Compound C93, (E/Z)-2-(5-((7-(2,6-dimethoxy-4-(1,4,5-trimethyl-6-oxo-1,6-dihydropyridin-3-yl)benzyl)-4,7-diazaspiro[2.5]octan-4-yl)methyl)-1-ethyl-1,2,3,4-tetrahydroisoquinoline-2-carbonyl)-5-fluoro-4,4-dimethylpent-2-enenitrile]		< 1.25	> 75
CCC1c2cccc(CN3CCN(Cc4c(OC)cc(-c5cn(C)c(=O)c(C)c5C)cc4OC)CC34CC4)c2CCN1C(=O)/C(C#N)=C/C(C)(C)C (single isomer, unassigned) [Compound C94, (E/Z)-2-(5-((7-(2,6-dimethoxy-4-(1,4,5-trimethyl-6-oxo-1,6-dihydropyridin-3-yl)benzyl)-4,7-diazaspiro[2.5]octan-4-yl)methyl)-1-ethyl-1,2,3,4-tetrahydroisoquinoline-2-carbonyl)-4,4-dimethylpent-2-enenitrile]		< 1.25	> 75
COc1cc(-c2cn(C)c(=O)c(C)c2C)cc(OC)c1CN1CCN(Cc2ccc3c(c2)[C@H](C(C)C)N(C(=O)/C(C#N)=C/C(C)(C)CF)CC3)C2(CC2)C1 (single isomer, unassigned) [Compound C96, (E/Z)-2-(7-((7-(2,6-dimethoxy-4-(1,4,5-trimethyl-6-oxo-1,6-dihydropyridin-3-yl)benzyl)-4,7-diazaspiro[2.5]octan-4-yl)methyl)-1-isopropyl-1,2,3,4-tetrahydroisoquinoline-2-carbonyl)-5-fluoro 4,4-dimethylpent-2-enenitrile]		1.25 to 10	> 75
COc1cc(-c2cn(C)c(=O)c(C)c2C)cc(OC)c1CN1CCN(Cc2ccc3c(c2)[C@@H](C(C)C)N(C(=O)/C(C#N)=C/C(C)(C)CF)CC3)C2(CC2)C1 (single isomer, unassigned) [Compound C97, (E/Z)-2-(7-((7-(2,6-dimethoxy-4-(1,4,5-trimethyl-6-oxo-1,6-dihydropyridin-3-yl)benzyl)-4,7-diazaspiro[2.5]octan-4-yl)methyl)-1-isopropyl-1,2,3,4-tetrahydroisoquinoline-2-carbonyl)-5-fluoro 4,4-dimethylpent-2-enenitrile]		10 to 25	70 to 75

More lines, now with the values ahead:

Dmax (Assay protocol 2)	DC50 (Assay protocol 2) [nM]	Dmax [1] [%]	SMILES
+++ (+++ = ≥75%)	< 1.25		COc1cc(-c2cn(C)c(=O)c(C)c2C)cc(OC)c1CN1CCN(Cc2cccc3c2CCN(C(=O)/C(C#N)=C/C(C)(C)CF)C3C(C)C)C2(CC2)C1 (single isomer, unassigned) [Compound C77, (E/Z)-2-(5-((7-(2,6-dimethoxy-4-(1,4,5-trimethyl-6-oxo-1,6-dihydropyridin-3-yl)benzyl)-4,7-diazaspiro[2.5]octan-4-yl)methyl)-1-isopropyl-1,2,3,4-tetrahydroisoquinoline-2-carbonyl)-5-fluoro-4,4-dimethylpent-2-enenitrile]
	< 1.25	> 75	COc1cc(-c2cn(C)c(=O)c(C)c2C)cc(OC)c1CN1CCN(Cc2cccc3c2CCN(C(=O)/C(C#N)=C/C(C)(C)C)[C@H]3C(C)C)C2(CC2)C1 (single isomer, unassigned) [Compound C78, (E/Z)-2-(5-((7-(2,6-dimethoxy-4-(1,4,5-trimethyl-6-oxo-1,6-dihydropyridin-3-yl)benzyl)-4,7-diazaspiro[2.5]octan-4-yl)methyl)-1-isopropyl-1,2,3,4-tetrahydroisoquinoline-2-carbonyl)-4,4-dimethylpent-2-enenitrile]
	25 to 1000	40 to 70	COc1cc(-c2cn(C)c(=O)c(C)c2C)cc(OC)c1CN1CCN(Cc2cccc3c2CCN(C(=O)/C(C#N)=C/C(C)(C)C)[C@@H]3C(C)C)C2(CC2)C1 (single isomer, unassigned) [Compound C79, (E/Z)-2-(5-((7-(2,6-dimethoxy-4-(1,4,5-trimethyl-6-oxo-1,6-dihydropyridin-3-yl)benzyl)-4,7-diazaspiro[2.5]octan-4-yl)methyl)-1-isopropyl-1,2,3,4-tetrahydroisoquinoline-2-carbonyl)-4,4-dimethylpent-2-enenitrile]
	1.25 to 10	> 75	COc1cc(-c2cn(C)c(=O)c(C)c2C)cc(OC)c1CN1CCN(Cc2cccc3c2CCN(C(=O)/C(C#N)=C/C(C)(C)C)[C@H]3C(C)C)CC12CC2 (single isomer, unassigned) [Compound C81, (E/Z)-2-(5-((4-(2,6-dimethoxy-4-(1,4,5-trimethyl-6-oxo-1,6-dihydropyridin-3-yl)benzyl)-4,7-diazaspiro[2.5]octan-7-yl)methyl)-1-isopropyl-1,2,3,4-tetrahydroisoquinoline-2-carbonyl)-4,4-dimethylpent-2-enenitrile]
	25 to 1000	40 to 70	COc1cc(-c2cn(C)c(=O)c(C)c2C)cc(OC)c1CN1CCN(Cc2cccc3c2CCN(C(=O)/C(C#N)=C/C(C)(C)C)[C@@H]3C(C)C)CC12CC2 (single isomer, unassigned) [Compound C82, (E/Z)-2-(5-((4-(2,6-dimethoxy-4-(1,4,5-trimethyl-6-oxo-1,6-dihydropyridin-3-yl)benzyl)-4,7-diazaspiro[2.5]octan-7-yl)methyl)-1-isopropyl-1,2,3,4-tetrahydroisoquinoline-2-carbonyl)-4,4-dimethylpent-2-enenitrile]
